# Test system: MV-4-11 cells
# Test: Gene expression microarray analysis (Affymetrix PrimeView) and GSEA
# Type: cell-based, human
# Set-up: RFU PODN (11730768_x_at) / Fold change /veh PODN (11730768_x_at) / RFU LINC00158 (11744669_a_at) / Fold change /veh LINC00158 (11744669_a_at) / RFU DUSP10 (11751237_a_at) / Fold change /veh DUSP10 (11751237_a_at) / RFU ID3 (11757404_x_at) / Fold change /veh ID3 (11757404_x_at) / RFU PLEKHG5 (11737974_s_at) / Fold change /veh PLEKHG5 (11737974_s_at) / RFU LRRC4B (11730491_at) / Fold change /veh LRRC4B (11730491_at) / RFU GIMAP4 (11747438_a_at) / Fold change /veh GIMAP4 (11747438_a_at) / RFU KRT8 (11758183_x_at) / Fold change /veh KRT8 (11758183_x_at) / RFU CNN1 (11734310_a_at) / Fold change /veh CNN1 (11734310_a_at) / RFU VPS37D (11726825_at) / Fold change /veh VPS37D (11726825_at) / RFU C10orf10 (11716522_x_at) / Fold change /veh C10orf10 (11716522_x_at) / RFU KIR2DL2 /// KIR2DL4 /// KIR2DL5A /// KIR2DL5B /// KIR2DS1 /// KIR2DS2 /// KIR2DS3 /// KIR2DS4 /// KIR3DL3 /// KIR3DL3 /// KIR3DS1 (11738374_at) / Fold change /veh KIR2DL2 /// KIR2DL4 /// KIR2DL5A /// KIR2DL5B /// KIR2DS1 /// KIR2DS2 /// KIR2DS3 /// KIR2DS4 /// KIR3DL3 /// KIR3DL3 /// KIR3DS1 (11738374_at) / RFU C1QL1 (11718748_at) / Fold change /veh C1QL1 (11718748_at) / RFU TMPRSS4 (11747572_a_at) / Fold change /veh TMPRSS4 (11747572_a_at) / RFU HAMP (11756126_x_at) / Fold change /veh HAMP (11756126_x_at) / RFU RNFT2 (11725882_a_at) / Fold change /veh RNFT2 (11725882_a_at) / RFU NR4A2 (11747474_a_at) / Fold change /veh NR4A2 (11747474_a_at) / RFU ABCC12 (11746883_a_at) / Fold change /veh ABCC12 (11746883_a_at) / RFU TMEM136 (11760407_x_at) / Fold change /veh TMEM136 (11760407_x_at) / RFU CLDN22 /// WWC2 (11732394_at) / Fold change /veh CLDN22 /// WWC2 (11732394_at) / RFU HLA-DPB1 (11760878_x_at) / Fold change /veh HLA-DPB1 (11760878_x_at) / RFU SPINT1 (11716480_a_at) / Fold change /veh SPINT1 (11716480_a_at) / RFU GAP43 (11754022_s_at) / Fold change /veh GAP43 (11754022_s_at) / RFU A4GNT (11735810_at) / Fold change /veh A4GNT (11735810_at) / RFU PRB3 (11715151_x_at) / Fold change /veh PRB3 (11715151_x_at) / RFU TUBB4B (11761932_at) / Fold change /veh TUBB4B (11761932_at) / RFU CAPN14 (11732068_a_at) / Fold change /veh CAPN14 (11732068_a_at) / RFU TMCC2 (11721928_a_at) / Fold change /veh TMCC2 (11721928_a_at) / RFU IRGQ (11745062_a_at) / Fold change /veh IRGQ (11745062_a_at) / RFU FAM174B (11720279_a_at) / Fold change /veh FAM174B (11720279_a_at) / RFU TMPRSS4 (11748680_a_at) / Fold change /veh TMPRSS4 (11748680_a_at) / RFU FAM212B (11763350_a_at) / Fold change /veh FAM212B (11763350_a_at) / RFU PLEKHG5 (11743358_a_at) / Fold change /veh PLEKHG5 (11743358_a_at) / RFU ZSCAN30 (11745921_a_at) / Fold change /veh ZSCAN30 (11745921_a_at) / RFU CMKLR1 (11741424_a_at) / Fold change /veh CMKLR1 (11741424_a_at) / RFU LOC101060620 /// MAPK8IP1 (11723275_at) / Fold change /veh LOC101060620 /// MAPK8IP1 (11723275_at) / RFU SPTSSB (11747773_x_at) / Fold change /veh SPTSSB (11747773_x_at) / RFU PRSS12 (11739890_at) / Fold change /veh PRSS12 (11739890_at) / RFU BIN1 (11741810_x_at) / Fold change /veh BIN1 (11741810_x_at) / RFU WNT11 (11732464_a_at) / Fold change /veh WNT11 (11732464_a_at) / RFU C10orf10 (11716521_a_at) / Fold change /veh C10orf10 (11716521_a_at) / RFU C5orf56 (11738089_at) / Fold change /veh C5orf56 (11738089_at) / RFU CYB561 (11721691_x_at) / Fold change /veh CYB561 (11721691_x_at) / RFU ANKRD19P (11752326_a_at) / Fold change /veh ANKRD19P (11752326_a_at) / RFU OR2T12 /// OR2T33 /// OR2T8 (11738714_s_at) / Fold change /veh OR2T12 /// OR2T33 /// OR2T8 (11738714_s_at) / RFU VCAN (11748164_a_at) / Fold change /veh VCAN (11748164_a_at) / RFU JSRP1 (11732532_at) / Fold change /veh JSRP1 (11732532_at) / RFU KRTAP10-11 (11738290_x_at) / Fold change /veh KRTAP10-11 (11738290_x_at) / RFU MYO3A (11730013_a_at) / Fold change /veh MYO3A (11730013_a_at) / RFU EBF3 (11725865_a_at) / Fold change /veh EBF3 (11725865_a_at) / RFU CAMK2N1 (11719241_x_at) / Fold change /veh CAMK2N1 (11719241_x_at) / RFU C5orf56 (11738088_a_at) / Fold change /veh C5orf56 (11738088_a_at) / RFU OLFML3 (11715873_a_at) / Fold change /veh OLFML3 (11715873_a_at) / RFU LOC100653217 /// NTM (11731650_a_at) / Fold change /veh LOC100653217 /// NTM (11731650_a_at) / RFU MAPK11 (11762145_a_at) / Fold change /veh MAPK11 (11762145_a_at) / RFU FIZ1 (11724087_x_at) / Fold change /veh FIZ1 (11724087_x_at) / RFU OASL (11726364_x_at) / Fold change /veh OASL (11726364_x_at) / RFU SOX15 (11748057_x_at) / Fold change /veh SOX15 (11748057_x_at) / RFU CD79A (11719716_a_at) / Fold change /veh CD79A (11719716_a_at) / RFU HIST1H1D (11736915_at) / Fold change /veh HIST1H1D (11736915_at) / RFU CASKIN2 (11723855_a_at) / Fold change /veh CASKIN2 (11723855_a_at) / RFU LOC730098 (11760151_x_at) / Fold change /veh LOC730098 (11760151_x_at) / RFU OR4N2 (11742367_at) / Fold change /veh OR4N2 (11742367_at) / RFU PRRT2 (11749266_a_at) / Fold change /veh PRRT2 (11749266_a_at) / RFU SNX32 (11753110_a_at) / Fold change /veh SNX32 (11753110_a_at) / RFU CDHR5 (11726645_a_at) / Fold change /veh CDHR5 (11726645_a_at) / RFU RCAN1 (11760418_a_at) / Fold change /veh RCAN1 (11760418_a_at) / RFU FAM167A (11723789_a_at) / Fold change /veh FAM167A (11723789_a_at) / RFU FAM26E (11764081_at) / Fold change /veh FAM26E (11764081_at) / RFU ISYNA1 (11749810_s_at) / Fold change /veh ISYNA1 (11749810_s_at) / RFU ACY1 (11761880_at) / Fold change /veh ACY1 (11761880_at) / RFU 11764098_at / Fold change /veh 11764098_at / RFU SAMD14 (11745864_x_at) / Fold change /veh SAMD14 (11745864_x_at) / RFU NPB (11741838_a_at) / Fold change /veh NPB (11741838_a_at) / RFU TMPRSS6 (11731388_a_at) / Fold change /veh TMPRSS6 (11731388_a_at) / RFU KRTAP10-2 (11738614_at) / Fold change /veh KRTAP10-2 (11738614_at) / RFU ARHGAP8 /// PRR5-ARHGAP8 (11727945_x_at) / Fold change /veh ARHGAP8 /// PRR5-ARHGAP8 (11727945_x_at) / RFU KRTAP5-7 /// NADSYN1 (11734609_at) / Fold change /veh KRTAP5-7 /// NADSYN1 (11734609_at) / RFU RASL12 (11751679_a_at) / Fold change /veh RASL12 (11751679_a_at) / RFU CDKN2B (11736163_a_at) / Fold change /veh CDKN2B (11736163_a_at) / RFU PRF1 (11729649_at) / Fold change /veh PRF1 (11729649_at) / RFU, ZNF638 /// ZNF638-IT1 / Fold change vs veh, ZNF638 /// ZNF638-IT1 / RFU, PANK3 / Fold change vs veh, PANK3 / RFU, SH3YL1 / Fold change vs veh, SH3YL1 / RFU, ZEB2 / Fold change vs veh, ZEB2 / RFU, NRIP1 / Fold change vs veh, NRIP1 / RFU, PTTG1IP / Fold change vs veh, PTTG1IP / RFU, CAPN2 / Fold change vs veh, CAPN2 / RFU, MED14 / Fold change vs veh, MED14 / RFU, SNORA58 / Fold change vs veh, SNORA58 / RFU, C1orf63 / Fold change vs veh, C1orf63 / RFU, LRRFIP1 / Fold change vs veh, LRRFIP1 / RFU, NDUFAF7 / Fold change vs veh, NDUFAF7 / RFU, SLC12A2 / Fold change vs veh, SLC12A2 / RFU, IBTK / Fold change vs veh, IBTK / RFU, ESF1 / Fold change vs veh, ESF1 / Fold change vs veh, TMEM50B / RFU, TAOK1 / Fold change vs veh, TAOK1 / RFU, ACBD3 / Fold change vs veh, ACBD3 / RFU, TMA16 / Fold change vs veh, TMA16 / RFU, RWDD3 / Fold change vs veh, RWDD3 / RFU, BCAT1 / Fold change vs veh, BCAT1 / RFU, EDEM3 / Fold change vs veh, EDEM3 / RFU, TMEM33 / Fold change vs veh, TMEM33 / RFU, WDR75 / Fold change vs veh, WDR75 / RFU, AHCTF1 / Fold change vs veh, AHCTF1 / RFU, TFRC / Fold change vs veh, TFRC / RFU, ZDHHC17 / Fold change vs veh, ZDHHC17 / RFU, NOM1 / Fold change vs veh, NOM1 / RFU, ARL8B / Fold change vs veh, ARL8B / RFU, ZBTB11 / Fold change vs veh, ZBTB11 / RFU, TAMM41 / Fold change vs veh, TAMM41 / RFU, KIAA1704 /// LOC100996395 / Fold change vs veh, KIAA1704 /// LOC100996395 / RFU, ING1 / Fold change vs veh, ING1 / RFU, TRMT61B / Fold change vs veh, TRMT61B / RFU, FUBP3 / Fold change vs veh, FUBP3 / RFU, TP53 / Fold change vs veh, TP53 / RFU, TNKS2 / Fold change vs veh, TNKS2 / RFU, ZFP14 / Fold change vs veh, ZFP14 / RFU, ACTR2 / Fold change vs veh, ACTR2 / RFU, PPP3R1 / Fold change vs veh, PPP3R1 / RFU, PIK3R1 / Fold change vs veh, PIK3R1 / RFU, HNRNPA1 / Fold change vs veh, HNRNPA1 / RFU, RNF170 / Fold change vs veh, RNF170 / RFU, ZNF28 / Fold change vs veh, ZNF28 / RFU, RNGTT / Fold change vs veh, RNGTT / RFU, OGT / Fold change vs veh, OGT / RFU, BRD1 / Fold change vs veh, BRD1 / RFU, MARS / Fold change vs veh, MARS / RFU, ZNF655 / Fold change vs veh, ZNF655 / RFU, FAHD1 / Fold change vs veh, FAHD1 / RFU, BDP1 / Fold change vs veh, BDP1 / RFU, LRRCC1 / Fold change vs veh, LRRCC1 / RFU, ARID1A / Fold change vs veh, ARID1A / RFU, ZNF146 / Fold change vs veh, ZNF146 / RFU, ZNF330 / Fold change vs veh, ZNF330 / RFU, GPN3 / Fold change vs veh, GPN3 / RFU, C9orf123 / Fold change vs veh, C9orf123 / RFU, N4BP2L2 / Fold change vs veh, N4BP2L2 / RFU, ARFIP1 / Fold change vs veh, ARFIP1 / RFU, FAM179B / Fold change vs veh, FAM179B / RFU, BCL10 / Fold change vs veh, BCL10 / RFU, UHRF1BP1L / Fold change vs veh, UHRF1BP1L / RFU, BET1 / Fold change vs veh, BET1 / RFU, CNOT2 / Fold change vs veh, CNOT2 / RFU, ZNF268 / Fold change vs veh, ZNF268 / Fold change vs veh, ZNF507 / RFU, DGCR2 / Fold change vs veh, DGCR2 / RFU, WDSUB1 / Fold change vs veh, WDSUB1 / Fold change vs veh, HSP90B1 /// MIR3652 / RFU, ADSS / Fold change vs veh, ADSS / RFU, GK / Fold change vs veh, GK / RFU, ZNF148 / Fold change vs veh, ZNF148 / RFU, TAF9 / Fold change vs veh, TAF9 / RFU, SLC1A5 / Fold change vs veh, SLC1A5 / RFU, SLMO2 / Fold change vs veh, SLMO2 / RFU, ABCC4 / Fold change vs veh, ABCC4 / RFU, LOC101060439 /// RAP1B / Fold change vs veh, LOC101060439 /// RAP1B / RFU, RFX7 / Fold change vs veh, RFX7 / RFU, GTPBP10 / Fold change vs veh, GTPBP10 / RFU, CNEP1R1 / Fold change vs veh, CNEP1R1 / RFU, BIVM-ERCC5 /// ERCC5 / Fold change vs veh, BIVM-ERCC5 /// ERCC5 / RFU, ILF3 / Fold change vs veh, ILF3 / RFU 11762660_at / Fold change /veh 11762660_at / RFU VCAN (11757783_s_at) / Fold change /veh VCAN (11757783_s_at) / RFU DDX43 (11728927_at) / Fold change /veh DDX43 (11728927_at) / RFU KRT8 (11758188_x_at) / Fold change /veh KRT8 (11758188_x_at) / RFU NKD1 (11759106_at) / Fold change /veh NKD1 (11759106_at) / RFU SRD5A1 (11742802_a_at) / Fold change /veh SRD5A1 (11742802_a_at) / RFU TPSAB1 /// TPSB2 (11721975_s_at) / Fold change /veh TPSAB1 /// TPSB2 (11721975_s_at) / RFU GSTM3 (11746129_a_at) / Fold change /veh GSTM3 (11746129_a_at) / RFU IL23R (11737362_x_at) / Fold change /veh IL23R (11737362_x_at) / RFU TMEM51 (11727254_a_at) / Fold change /veh TMEM51 (11727254_a_at) / RFU PIWIL2 (11732686_x_at) / Fold change /veh PIWIL2 (11732686_x_at) / RFU ORM1 (11744905_x_at) / Fold change /veh ORM1 (11744905_x_at) / RFU CCDC152 (11743942_at) / Fold change /veh CCDC152 (11743942_at) / RFU ECM1 (11717891_a_at) / Fold change /veh ECM1 (11717891_a_at) / RFU IL23R (11748794_a_at) / Fold change /veh IL23R (11748794_a_at) / RFU TNFAIP8L3 (11732012_x_at) / Fold change /veh TNFAIP8L3 (11732012_x_at) / RFU MBOAT4 (11741988_at) / Fold change /veh MBOAT4 (11741988_at) / RFU 11764193_at / Fold change /veh 11764193_at / RFU TMEM53 (11763286_at) / Fold change /veh TMEM53 (11763286_at) / RFU MAGEB2 (11727129_at) / Fold change /veh MAGEB2 (11727129_at) / RFU TMEM200A (11744735_a_at) / Fold change /veh TMEM200A (11744735_a_at) / RFU CCDC152 (11751479_a_at) / Fold change /veh CCDC152 (11751479_a_at) / RFU FAM211A (11726209_a_at) / Fold change /veh FAM211A (11726209_a_at) / RFU RGS16 (11746705_a_at) / Fold change /veh RGS16 (11746705_a_at) / RFU VCAN (11755009_s_at) / Fold change /veh VCAN (11755009_s_at) / RFU RHOB (11743442_s_at) / Fold change /veh RHOB (11743442_s_at) / RFU RGS16 (11720943_a_at) / Fold change /veh RGS16 (11720943_a_at) / RFU RGS16 (11720944_at) / Fold change /veh RGS16 (11720944_at) / RFU, VPS4B / Fold change vs veh, VPS4B / RFU, CREB1 / Fold change vs veh, CREB1 / RFU, DNAJC13 / Fold change vs veh, DNAJC13 / RFU, GNAQ / Fold change vs veh, GNAQ / RFU, CDK5R1 / Fold change vs veh, CDK5R1 / RFU, ZRANB3 / Fold change vs veh, ZRANB3 / RFU, CUL4A / Fold change vs veh, CUL4A / RFU, CCNY / Fold change vs veh, CCNY / RFU, UFL1 / Fold change vs veh, UFL1 / RFU, COG3 / Fold change vs veh, COG3 / RFU, DIAPH2 / Fold change vs veh, DIAPH2 / RFU, SKA2 / Fold change vs veh, SKA2 / RFU, AFF3 / Fold change vs veh, AFF3 / RFU, LMF1 / Fold change vs veh, LMF1 / RFU, IPO11 / Fold change vs veh, IPO11 / RFU, DFFB / Fold change vs veh, DFFB / RFU, FOXP1 / Fold change vs veh, FOXP1 / RFU, CARD8 / Fold change vs veh, CARD8 / RFU, STRN3 / Fold change vs veh, STRN3 / RFU, ADK / Fold change vs veh, ADK / RFU, RASSF2 / Fold change vs veh, RASSF2 / RFU, WIPF1 / Fold change vs veh, WIPF1 / RFU, LARP1B / Fold change vs veh, LARP1B / RFU, RASA1 / Fold change vs veh, RASA1 / RFU, RB1 / Fold change vs veh, RB1 / RFU, PPFIA1 / Fold change vs veh, PPFIA1 / RFU, MAT2A / Fold change vs veh, MAT2A / RFU, CCT5 / Fold change vs veh, CCT5 / RFU, WDR92 / Fold change vs veh, WDR92 / RFU, CUX1 / Fold change vs veh, CUX1 / RFU, TTC7A / Fold change vs veh, TTC7A / RFU, TMEM135 / Fold change vs veh, TMEM135 / RFU, DEPTOR / Fold change vs veh, DEPTOR / RFU, CPM / Fold change vs veh, CPM / RFU, DNAJB6 / Fold change vs veh, DNAJB6 / RFU, CACNA2D3 / Fold change vs veh, CACNA2D3 / RFU, DTX4 / Fold change vs veh, DTX4 / RFU, TFCP2 / Fold change vs veh, TFCP2 / RFU, GMCL1 /// GMCL1P1 / Fold change vs veh, GMCL1 /// GMCL1P1 / RFU, AEBP2 / Fold change vs veh, AEBP2 / RFU, SNHG1 /// SNORD22 /// SNORD25 /// SNORD26 /// SNORD27 /// SNORD28 /// SNORD29 /// SNORD31 / Fold change vs veh, SNHG1 /// SNORD22 /// SNORD25 /// SNORD26 /// SNORD27 /// SNORD28 /// SNORD29 /// SNORD31 / Fold change (Aza/veh), C12orf56 (ProbeSet 11735607_a_at) / Fold change (ACY-1035/veh), C12orf56 (ProbeSet 11735607_a_at) / Fold change (Aza/veh), FGFR1OP (ProbeSet 11751329_s_at) / Fold change (ACY-1035/veh), FGFR1OP (ProbeSet 11751329_s_at) / Fold change (Aza/veh), VPS36 (ProbeSet 11739960_a_at) / Fold change (ACY-1035/veh), VPS36 (ProbeSet 11739960_a_at) / RFU SYPL1 (11715823_x_at) / Fold change /veh SYPL1 (11715823_x_at) / RFU IGFBP7 (11715501_s_at) / Fold change /veh IGFBP7 (11715501_s_at) / RFU REEP3 (11722064_at) / Fold change /veh REEP3 (11722064_at) / RFU IGLL1 (11728026_x_at) / Fold change /veh IGLL1 (11728026_x_at): dose or concentration left out as unconfirmed
# Conditions: ProbeSet 11717308_a_at; LIST B
compound,measurement,value
Nc1ccc(-c2cccs2)cc1NC(=O)c1ccc2c(c1)cc(C1CC1)n2CCN1CCOCC1 [ACY-1035],"RFU, WDR75",291.65 RFU
